Laboratory results reported in PubChem BioAssay AID318 (DTP/NCI, 2004).
“And” between values parts separate entries of the source, which are not always exact repeats. Equal values may be shown once. Toxic doses and inconclusive results are not listed.

Tested on: BDF1 mice, P815 leukemia ip, survival T/C
Assay: NCI In Vivo Anticancer Drug Screen. Data for tumor model P815 Mast Cell Leukemia (Ascitic) (intraperitoneal) in B6D2F1 (BDF1) mice
Settings: higher = longer survival
Protocol: The antitumor activity of compounds was measured in mice bearing transplantable tumors. Survival or tumor size were measured and the results are expressed as the measurement made in the treated group (T) divided by the measurement made in the vehicle treated control group (C). The tumor model used in this assay is P815 Mast Cell Leukemia (Ascitic) (intraperitoneal) in B6D2F1 (BDF1) mice

[1] = endpoint: survival time, mean or median, dose: 25.0 mg/kg/injection, schedule: Q01DX015 (ip), vehicle: carboxymethylcellulose (CMC)
[2] = endpoint: survival time, mean or median, dose: 100.0 mg/kg/injection, schedule: Q01DX015 (ip), vehicle: carboxymethylcellulose (CMC)
[3] = endpoint: survival time, mean or median, dose: 13.3 mg/kg/injection, schedule: Q01DX010 (ip), vehicle: saline
[4] = endpoint: survival time, mean or median, dose: 20.0 mg/kg/injection, schedule: Q01DX010 (ip), vehicle: saline
[5] = endpoint: survival time, mean or median, dose: 50.0 mg/kg/injection, schedule: Q01DX015 (ip), vehicle: carboxymethylcellulose (CMC)
[6] = endpoint: survival time, mean or median, dose: 16.0 mg/kg/injection, schedule: Q01DX010 (ip), vehicle: saline
[7] = endpoint: survival time, mean or median, dose: 32.0 mg/kg/injection, schedule: Q01DX010 (ip), vehicle: saline
[8] = endpoint: survival time, mean or median, dose: 40.0 mg/kg/injection, schedule: Q01DX010 (ip), vehicle: saline
[9] = endpoint: survival time, mean or median, dose: 12.5 mg/kg/injection, schedule: Q01DX010 (sc), vehicle: steriod suspending solution
[10] = endpoint: survival time, mean or median, dose: 25.0 mg/kg/injection, schedule: Q01DX010 (sc), vehicle: steriod suspending solution
[11] = endpoint: survival time, mean or median, dose: 100.0 mg/kg/injection, schedule: Q01DX010 (sc), vehicle: steriod suspending solution

C[C@@H]1C[C@H]2CC[C@H](O2)[C@H](C)C(=O)O[C@@H](C)C[C@@H]2CC[C@@H](O2)[C@@H](C)C(=O)O[C@H](C)C[C@H]2CC[C@H](O2)[C@H](C)C(=O)O[C@@H](C)C[C@@H]2CC[C@@H](O2)[C@@H](C)C(=O)O1
T/C (endpoint: survival time, mean or median, dose: 1.5 mg/kg/injection, schedule: Q01DX015 (ip), vehicle: other): 106 % of control
T/C (endpoint: survival time, mean or median, dose: 3.0 mg/kg/injection, schedule: Q01DX015 (ip), vehicle: other): 98 % of control
T/C (endpoint: survival time, mean or median, dose: 6.0 mg/kg/injection, schedule: Q01DX015 (ip), vehicle: other): 100 % of control
T/C (endpoint: survival time, mean or median, dose: 12.0 mg/kg/injection, schedule: Q01DX015 (ip), vehicle: other): 100 % of control

COc1ccc(C[n+]2cc([O-])on2)cc1
T/C (endpoint: survival time, mean or median, dose: 12.5 mg/kg/injection, schedule: Q01DX015 (ip), vehicle: carboxymethylcellulose (CMC)): 111 % of control
T/C [1]: 114 % of control
T/C [2]: 107 % of control

CNc1nc(Nc2ccc(C3=NCCN3)cc2)nc(Nc2ccc(C3=NCCN3)cc2)n1
T/C [3]: 108 % of control
T/C [4]: 108 % of control
T/C (endpoint: survival time, mean or median, dose: 30.0 mg/kg/injection, schedule: Q01DX010 (ip), vehicle: saline): 108 % of control
T/C (endpoint: survival time, mean or median, dose: 45.0 mg/kg/injection, schedule: Q01DX010 (ip), vehicle: saline): 116 % of control

CC(=O)OCC1OC(n2cnc3c(=S)nc[nH]c32)C(OC(C)=O)C1OC(C)=O (stereo not given)
T/C [5]: 162 % of control
T/C [2]: 100 % of control

O=C(O)CC(NC(=O)CP(=O)(O)O)C(=O)O (stereo not given)
T/C (endpoint: median survival time, dose: 62.2 mg/kg/injection, schedule: Q04DX003 (ip), vehicle: saline): 99 % of control
T/C (endpoint: median survival time, dose: 104.0 mg/kg/injection, schedule: Q04DX003 (ip), vehicle: saline): 99 % of control
T/C (endpoint: median survival time, dose: 173.0 mg/kg/injection, schedule: Q04DX003 (ip), vehicle: saline): 97 % of control
T/C (endpoint: median survival time, dose: 288.0 mg/kg/injection, schedule: Q04DX003 (ip), vehicle: saline): 107 % of control
T/C (endpoint: median survival time, dose: 480.0 mg/kg/injection, schedule: Q04DX003 (ip), vehicle: saline): 92 % of control

Nc1nc(=S)c2ncn(C3OC(CO)C(O)C3O)c2[nH]1 (stereo not given)
T/C (endpoint: survival time, mean or median, dose: 2.0 mg/kg/injection, schedule: Q01DX010 (ip), vehicle: saline): 155 % of control

CCCCn1cnc2c(=S)nc[nH]c21
T/C [6]: 105 % of control
T/C [7]: 100 % of control
T/C (endpoint: survival time, mean or median, dose: 64.0 mg/kg/injection, schedule: Q01DX010 (ip), vehicle: saline): 111 % of control
T/C (endpoint: survival time, mean or median, dose: 128.0 mg/kg/injection, schedule: Q01DX010 (ip), vehicle: saline): 105 % of control

O=c1cnn(C2OC(CO)C(O)C2O)c(=O)[nH]1 (stereo not given)
T/C (endpoint: survival time, mean or median, dose: 800.0 mg/kg/injection, schedule: Q01DX010 (ip), vehicle: saline): 111 % of control
T/C (endpoint: survival time, mean or median, dose: 1600.0 mg/kg/injection, schedule: Q01DX010 (ip), vehicle: saline): 100 % of control

CCCCOP(=S)(N1CC1)N1CC1
T/C (endpoint: survival time, mean or median, dose: 4.0 mg/kg/injection, schedule: Q01DX010 (ip), vehicle: saline): 120 % of control and 122 % of control
T/C [6]: 90 % of control and 122 % of control
T/C [7]: 90 % of control

CN(C)/N=N/c1nc[nH]c1C(N)=O
T/C [1]: 103 % of control
T/C [5]: 110 % of control
T/C (endpoint: survival time, mean or median, dose: 150.0 mg/kg/injection, schedule: Q01DX015 (ip), vehicle: carboxymethylcellulose (CMC)): 96 % of control

NOCc1cscn1
T/C (endpoint: median survival time, dose: 25.0 mg/kg/injection, schedule: Q01DX010 (ip), vehicle: saline sonified): 87 % of control
T/C (endpoint: median survival time, dose: 50.0 mg/kg/injection, schedule: Q01DX010 (ip), vehicle: saline sonified): 100 % of control

O=C(Nc1ccc(C2=NCCN2)cc1)c1cc(C(=O)Nc2ccc(C3=NCCN3)cc2)cc([N+](=O)[O-])c1
T/C (endpoint: survival time, mean or median, dose: 167.0 mg/kg/injection, schedule: Q01DX010 (ip), vehicle: saline): 91 % of control
T/C (endpoint: survival time, mean or median, dose: 250.0 mg/kg/injection, schedule: Q01DX010 (ip), vehicle: saline): 95 % of control
T/C (endpoint: survival time, mean or median, dose: 375.0 mg/kg/injection, schedule: Q01DX010 (ip), vehicle: saline): 91 % of control

Nc1ccc(OC(=O)Oc2ccc(N)cc2)cc1
T/C (endpoint: survival time, mean or median, dose: 25.0 mg/kg/injection, schedule: Q01DX015 (ip), vehicle: saline): 97 % of control
T/C (endpoint: survival time, mean or median, dose: 50.0 mg/kg/injection, schedule: Q01DX015 (ip), vehicle: saline): 102 % of control
T/C (endpoint: survival time, mean or median, dose: 100.0 mg/kg/injection, schedule: Q01DX015 (ip), vehicle: saline): 108 % of control
T/C (endpoint: survival time, mean or median, dose: 200.0 mg/kg/injection, schedule: Q01DX015 (ip), vehicle: saline): 104 % of control

CC1CN=C(c2ccc(NC(=O)c3cccc(C(=O)Nc4ccc(C5=NCC(C)N5)cc4)c3)cc2)N1 (stereo not given)
T/C (endpoint: survival time, mean or median, dose: 12.0 mg/kg/injection, schedule: Q01DX010 (ip), vehicle: saline): 112 % of control
T/C (endpoint: survival time, mean or median, dose: 18.0 mg/kg/injection, schedule: Q01DX010 (ip), vehicle: saline): 104 % of control
T/C (endpoint: survival time, mean or median, dose: 27.0 mg/kg/injection, schedule: Q01DX010 (ip), vehicle: saline): 112 % of control

O=NN(CCCl)C(=O)NCCCl
T/C (endpoint: survival time, mean or median, dose: 6.25 mg/kg/injection, schedule: Q01DX010 (ip), vehicle: saline): 245 % of control and 263 % of control
T/C (endpoint: survival time, mean or median, dose: 12.5 mg/kg/injection, schedule: Q01DX010 (ip), vehicle: saline): 159 % of control

CN=C(NC)c1ccc(NC(=O)Nc2ccc(NC(=O)Nc3ccc(C(=NC)NC)cc3)cc2)cc1
T/C [3]: 108 % of control
T/C [4]: 112 % of control

C[C@@H]1C[C@@H]([C@H](O)CC2CC(=O)NC(=O)C2)C(=O)[C@@H](C)C1
T/C (endpoint: survival time, mean or median, dose: 5.0 mg/kg/injection, schedule: Q01DX010 (ip), vehicle: saline): 109 % of control and 118 % of control
T/C (endpoint: survival time, mean or median, dose: 10.0 mg/kg/injection, schedule: Q01DX010 (ip), vehicle: saline): 104 % of control and 109 % of control
T/C [4]: 109 % of control and 118 % of control
T/C [8]: 118 % of control

CCn1cnc2c(=S)nc[nH]c21
T/C (endpoint: survival time, mean or median, dose: 15.6 mg/kg/injection, schedule: Q01DX010 (ip), vehicle: saline): 94 % of control
T/C (endpoint: survival time, mean or median, dose: 31.3 mg/kg/injection, schedule: Q01DX010 (ip), vehicle: saline): 98 % of control and 102 % of control
T/C (endpoint: survival time, mean or median, dose: 62.5 mg/kg/injection, schedule: Q01DX010 (ip), vehicle: saline): 97 % of control

CC(=O)O[C@]1(C(C)=O)CC[C@H]2[C@@H]3C[C@H](C)C4=CC(=O)C=C[C@]4(C)[C@@]3(F)[C@@H](O)C[C@@]21C
T/C (endpoint: survival time, mean or median, dose: 3.13 mg/kg/injection, schedule: Q01DX010 (sc), vehicle: steriod suspending solution): 100 % of control
T/C (endpoint: survival time, mean or median, dose: 6.25 mg/kg/injection, schedule: Q01DX010 (sc), vehicle: steriod suspending solution): 100 % of control
T/C [9]: 100 % of control and 106 % of control
T/C [10]: 100 % of control
T/C [11]: 93 % of control

NC(Cc1ccc(N(CCCl)CCCl)cc1)C(=O)O (stereo not given)
T/C (endpoint: survival time, mean or median, dose: 4.0 mg/kg/injection, schedule: Q01DX010 (ip), vehicle: other): 120 % of control
T/C (endpoint: survival time, mean or median, dose: 8.0 mg/kg/injection, schedule: Q01DX010 (ip), vehicle: other): 100 % of control

CC/C(=C(/CC)c1ccc(O)cc1)c1ccc(O)cc1
T/C [9]: 100 % of control and 104 % of control
T/C [10]: 100 % of control and 109 % of control
T/C (endpoint: survival time, mean or median, dose: 50.0 mg/kg/injection, schedule: Q01DX010 (sc), vehicle: steriod suspending solution): 100 % of control and 104 % of control
T/C [11]: 100 % of control and 109 % of control

CSc1ncnc2nc[nH]c12
T/C (endpoint: survival time, mean or median, dose: 25.0 mg/kg/injection, schedule: Q01DX010 (ip), vehicle: saline): 100 % of control
T/C (endpoint: survival time, mean or median, dose: 50.0 mg/kg/injection, schedule: Q01DX010 (ip), vehicle: saline): 100 % of control and 115 % of control
T/C (endpoint: survival time, mean or median, dose: 100.0 mg/kg/injection, schedule: Q01DX010 (ip), vehicle: saline): 100 % of control and 105 % of control
T/C (endpoint: survival time, mean or median, dose: 200.0 mg/kg/injection, schedule: Q01DX010 (ip), vehicle: saline): 105 % of control and 110 % of control

S=P(N1CCOCC1)(N1CC1)N1CC1
T/C (endpoint: survival time, mean or median, dose: 2.5 mg/kg/injection, schedule: Q01DX010 (ip), vehicle: saline): 97 % of control and 100 % of control
T/C [8]: 100 % of control

O=C(Nc1ccc(C2=NCCN2)cc1)c1cc(Cl)cc(C(=O)Nc2ccc(C3=NCCN3)cc2)c1
T/C (endpoint: survival time, mean or median, dose: 140.0 mg/kg/injection, schedule: Q01DX010 (ip), vehicle: saline): 91 % of control
T/C (endpoint: survival time, mean or median, dose: 210.0 mg/kg/injection, schedule: Q01DX010 (ip), vehicle: saline): 95 % of control
T/C (endpoint: survival time, mean or median, dose: 315.0 mg/kg/injection, schedule: Q01DX010 (ip), vehicle: saline): 86 % of control
T/C (endpoint: survival time, mean or median, dose: 473.0 mg/kg/injection, schedule: Q01DX010 (ip), vehicle: saline): 91 % of control
